For 26 compounds, IC50 results are on record in patent US8420657B2 (Novartis AG, priority 2008, dated 2013).

A value given as a limit tells only on which side of the number the result lay.

The target of one test is T1, GST-JAK2(808-1132) (Homo sapiens, UniProt O60674).
T1 construct: GST-JAK2(808-1132); purchased Invitrogen (Carlsbad, USA) #4288
Kind of test: JAK2 kinase assay (Caliper mobility shift, LabChip 3000). In kind it is biochemical. In short, it runs like this:
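Recombinant GST-JAK2(808-1132) kinase domain with FITC-labelled JAK3tide peptide substrate and ATP; 60 min at 30 °C, EDTA stop. Substrate/product ratio read by microfluidic mobility shift; compounds at 8 final concentrations, 10 to 0.003 μM.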

In test [1] the test system is JAK1/JAK2-dependent nuclear translocation of STAT1-GFP in HT1080 fibrosarcoma cells. Nature of the test: STAT1 nuclear translocation assay (Cellomics), IFN-γ stimulated HT1080 STAT1-GFP cells. The class given is cell-based. Particulars: Homo sapiens, HT-1080, STAT1 translocation pathway. The method, boiled down: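 HT1080 cells stably expressing STAT1-GFP, pre-treated 30 min with compound (10 μM–0.003 μM, 0.1% DMSO), then stimulated 2 h with 100 ng/ml IFN-γ, fixed and Hoechst-stained. Nuclear-cytoplasmic GFP differential imaged over ≥1000 cells/well, normalised to unstimulated and DMSO-stimulated wells for IC50.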

T1 sequence (O60674 808-1132): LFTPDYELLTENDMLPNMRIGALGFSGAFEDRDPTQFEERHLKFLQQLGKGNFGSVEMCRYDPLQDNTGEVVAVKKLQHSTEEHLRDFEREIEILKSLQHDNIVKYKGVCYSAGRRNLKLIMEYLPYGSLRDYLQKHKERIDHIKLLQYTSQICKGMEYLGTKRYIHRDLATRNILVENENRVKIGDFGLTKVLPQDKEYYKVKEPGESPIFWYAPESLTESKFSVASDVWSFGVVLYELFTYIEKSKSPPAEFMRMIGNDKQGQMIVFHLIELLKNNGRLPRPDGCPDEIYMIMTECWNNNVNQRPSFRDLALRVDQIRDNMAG

Broadly, the IC50 is the concentration at which inhibition is half-maximal. As for `Cc1ccc(Nc2ncc3ccn(-c4ccc(C(=O)N5CCN(C)CC5)c(F)c4)c3n2)cc1C` [Example 155, {4-[2-(3,4-Dimethyl-phenylamino)-pyrrolo[2,3-d]pyrimidin-7-yl]-2-fluoro-phenyl}-(4-methyl-piperazin-1-yl)-methanone], the half-maximal inhibitory concentration (IC50) at GST-JAK2(808-1132) came to 200 nM; in test [1] it was 3280 nM.

As for `Cc1ccc(Nc2ncc3ccn(-c4ccc(CC(=O)N5CCS(=O)(=O)CC5)c(F)c4)c3n2)cc1C` [Example 156, 2-{4-[2-(3,4-Dimethyl-phenylamino)-pyrrolo[2,3-d]pyrimidin-7-yl]-2-fluoro-phenyl}-1-(1,1-dioxido-1-thiomorpholin-4-yl)-ethanone], the half-inhibitory concentration (IC50) at GST-JAK2(808-1132) amounted to 13 nM; in test [1] it was 60 nM.

On to `O=C(c1ccc(Nc2ncc3ccn(-c4ccc(CN5CCOCC5)c(F)c4)c3n2)cc1)N1CCOCC1` [Example 157, {4-[7-(3-Fluoro-4-morpholin-4-ylmethyl-phenyl)-7H-pyrrolo[2,3-d]pyrimidin-2-ylamino]-phenyl}-morpholin-4-yl-methanone], for which the IC50 at GST-JAK2(808-1132) is 6.1 nM; in test [1] it was 130 nM.

For the compound `CN1CCN(C(=O)c2ccc(Nc3ncc4ccn(-c5ccc(CN6CCOCC6)c(F)c5)c4n3)cc2F)CC1` [Example 158, {2-Fluoro-4-[7-(3-fluoro-4-morpholin-4-ylmethyl-phenyl)-7H-pyrrolo[2,3-d]pyrimidin-2-ylamino]-phenyl}-(4-methyl-piperazin-1-yl)-methanone], the IC50 on GST-JAK2(808-1132) came to 9.4 nM; in test [1], 265 nM.

Consider `CCN1CCN(C(=O)C2(c3ccc(-n4ccc5cnc(Nc6ccc(C)c(C)c6)nc54)cc3)CC2)CC1` [Example 159, (1-{4-[2-(3,4-Dimethyl-phenylamino)-pyrrolo[2,3-d]pyrimidin-7-yl]-phenyl}-cyclopropyl)-(4-ethyl-piperazin-1-yl)-methanone], for which the IC50 at GST-JAK2(808-1132) was 46.5 nM; in test [1], 1120 nM.

As to `Cc1ccc(Nc2ncc3ccn(-c4ccc(CN5CCOCC5)cc4)c3n2)cc1C` [Example 160, (3,4-Dimethyl-phenyl)-[7-(4-morpholin-4-ylmethyl-phenyl)-7H-pyrrolo[2,3-d]pyrimidin-2-yl]-amine], the IC50 was 41.8 nM on GST-JAK2(808-1132) and 973 nM in test [1].

Regarding `Cc1ccc(Nc2ncc3cc(C)n(-c4ccc(CC(=O)N5CCN(C)CC5)cc4)c3n2)cc1C` [Example 161, 2-{4-[2-(3,4-Dimethyl-phenylamino)-6-methyl-pyrrolo[2,3-d]pyrimidin-7-yl]-phenyl}-1-(4-methyl-piperazin-1-yl)-ethanone], the IC50 on GST-JAK2(808-1132) was 870 nM; in test [1], 9350 nM.

On to `COc1cc(Nc2ncc3cc(C)n(-c4ccc(CC(=O)N5CCN(C)CC5)cc4)c3n2)ccc1F` [Example 162, 2-{4-[2-(4-Fluoro-3-methoxy-phenylamino)-6-methyl-pyrrolo[2,3-d]pyrimidin-7-yl]-phenyl}-1-(4-methyl-piperazin-1-yl)-ethanone], for which the results for the IC50 (on GST-JAK2(808-1132); in test [1]) were 305 nM and 9700 nM, respectively.

Turning to `Cc1ccc(Nc2ncc3cc(C)n(-c4ccc(CN5CCOCC5)c(F)c4)c3n2)cc1C` [Example 163, (3,4-Dimethyl-phenyl)-[7-(3-fluoro-4-morpholin-4-ylmethyl-phenyl)-6-methyl-7H-pyrrolo[2,3-d]pyrimidin-2-yl]-amine], the concentration for half-maximal inhibition (IC50) on GST-JAK2(808-1132) turned out to be 295 nM; in test [1], 23500 nM.

As to `COc1cc(Nc2ncc3cc(C)n(-c4ccc(CN5CCOCC5)c(F)c4)c3n2)ccc1F` [Example 164, (4-Fluoro-3-methoxy-phenyl)-[7-(3-fluoro-4-morpholin-4-ylmethyl-phenyl)-6-methyl-7H-pyrrolo[2,3-d]pyrimidin-2-yl]-amine], the IC50 on GST-JAK2(808-1132) is 230 nM; in test [1], 10700 nM.

With `CCOc1ccc(Nc2ncc3ccn(-c4ccc(CC(=O)N5CCN(CC)CC5)cc4)c3n2)cc1OCC` [Example 165, 2-{4-[2-(3,4-Diethoxy-phenylamino)-pyrrolo[2,3-d]pyrimidin-7-yl]-phenyl}-1-(4-ethyl-piperazin-1-yl)-ethanone], the IC50 on GST-JAK2(808-1132) is less than 3 nM; in test [1], 125 nM.

On to `Cc1ccc(Nc2ncc3ccn(-c4ccc(CC(=O)N5CCOCC5)cc4)c3n2)cc1C` [Example 166, 2-{4-[2-(3,4-Dimethyl-phenylamino)-pyrrolo[2,3-d]pyrimidin-7-yl]-phenyl}-1-morpholin-4-yl-ethanone], for which the figures for the IC50 (at GST-JAK2(808-1132); in test [1]) were 3.4 nM and 145 nM, respectively.

With `CCOc1ccc(Nc2ncc3cc(C)n(-c4ccc(CC(=O)N5CCN(C)CC5)cc4)c3n2)cc1OCC` [Example 167, 2-{4-[2-(3,4-Diethoxy-phenylamino)-6-methyl-pyrrolo[2,3-d]pyrimidin-7-yl]-phenyl}-1-(4-methyl-piperazin-1-yl)-ethanone], the concentration for half-maximal inhibition (IC50) on GST-JAK2(808-1132) was determined as 39 nM; in test [1] it was 2070 nM.

Regarding `CCOc1ccc(Nc2ncc3cc(C)n(-c4ccc(CN5CCOCC5)c(F)c4)c3n2)cc1OCC` [Example 168, (3,4-Diethoxy-phenyl)-[7-(3-fluoro-4-morpholin-4-ylmethyl-phenyl)-6-methyl-7H-pyrrolo[2,3-d]pyrimidin-2-yl]-amine], the results for the 50% inhibitory concentration (IC50) (on GST-JAK2(808-1132); in test [1]) were 30.5 nM and 3900 nM, respectively.

Take `Cc1ccc(Nc2ncc3ccn(-c4ccc(C(=O)N5CCOCC5)cc4)c3n2)cc1C` [Example 169, {4-[2-(3,4-Dimethyl-phenylamino)-pyrrolo[2,3-d]pyrimidin-7-yl]-phenyl}-morpholin-4-yl-methanone]: the 50% inhibitory concentration (IC50) on GST-JAK2(808-1132) was found to be 4.3 nM; in test [1], 93 nM.

As for `Cc1ccc(Nc2ncc3ccn(-c4ccc(C(=O)N5CCN(C)CC5)cc4)c3n2)cc1C` [Example 170, {4-[2-(3,4-Dimethyl-phenylamino)-pyrrolo[2,3-d]pyrimidin-7-y]-phenyl}-(4-methyl-piperazin-1-yl)-methanone], the IC50 on GST-JAK2(808-1132) was 17 nM; in test [1], 374 nM.

On to `CCN1CCN(C(=O)c2ccc(Nc3ncc4ccn(-c5cc(F)c(CN6CCOCC6)c(F)c5)c4n3)cc2)CC1` [Example 171, {4-[7-(3,5-Difluoro-4-morpholin-4-ylmethyl-phenyl)-7H-pyrrolo[2,3-d]pyrimidin-2-ylamino]-phenyl}-(4-ethyl-piperazin-1-yl)-methanone], for which the IC50 on GST-JAK2(808-1132) was less than 3 nM; in test [1] it was 260 nM.

With `CCN1CCN(C(=O)Cc2cccc(Nc3ncc4ccn(-c5cc(F)c(CN6CCOCC6)c(F)c5)c4n3)c2)CC1` [Example 172, 2-{3-[7-(3,5-Difluoro-4-morpholin-4-ylmethyl-phenyl)-7H-pyrrolo[2,3-d]pyrimidin-2-ylamino]-phenyl}-1-(4-ethyl-piperazin-1-yl)-ethanone], the half-inhibitory concentration (IC50) on GST-JAK2(808-1132) was less than 3 nM; in test [1] it was 220 nM.

Regarding `CN1CCN(Cc2ccc(Nc3ncc4ccn(-c5cc(F)c(CN6CCOCC6)c(F)c5)c4n3)cc2)CC1` [Example 173, [7-(3,5-Difluoro-4-morpholin-4-ylmethyl-phenyl)-7H-pyrrolo[2,3-d]pyrimidin-2-yl]-[4-(4-methyl-piperazin-1-ylmethyl)-phenyl]-amine], the values for the concentration for half-maximal inhibition (IC50) (at GST-JAK2(808-1132); in test [1]) were 5.5 nM and 235 nM, respectively.

Regarding `CN1CCN(c2cccc(Nc3ncc4ccn(-c5cc(F)c(CN6CCOCC6)c(F)c5)c4n3)c2)CC1` [Example 174, [7-(3,5-Difluoro-4-morpholin-4-ylmethyl-phenyl)-7H-pyrrolo[2,3-d]pyrimidin-2-yl]-[3-(4-methyl-piperazin-1-yl)-phenyl]-amine], the IC50 is less than 3 nM on GST-JAK2(808-1132) and 150 nM in test [1].

For `O=C(c1ccc(Nc2ncc3ccn(-c4ccc(CN5CCOCC5)c(Cl)c4)c3n2)cc1)N1CCOCC1` [Example 175, {4-[7-(3-Chloro-4-morpholin-4-ylmethyl-phenyl)-7H-pyrrolo[2,3-d]pyrimidin-2-ylamino]-phenyl}-morpholin-4-yl-methanone], the IC50 was less than 3 nM at GST-JAK2(808-1132) and 275 nM in test [1].

Turning to `COCc1ccc(Nc2ncc3ccn(-c4ccc(CN5CCOCC5)c(Cl)c4)c3n2)cc1` [Example 176, [7-(3-Chloro-4-morpholin-4-yl methyl-phenyl)-7H-pyrrolo[2,3-d]pyrimidin-2-yl]-(4-methoxymethyl-phenyl)-amine], the IC50 on GST-JAK2(808-1132) came to 7.3 nM; in test [1], 1550 nM.

`CCOc1ccc(Nc2ncc3ccn(-c4ccc(CN5CCOCC5)c(Cl)c4)c3n2)cc1OCC` [Example 177, [7-(3-Chloro-4-morpholin-4-ylmethyl-phenyl)-7H-pyrrolo[2,3-d]pyrimidin-2-yl]-(3,4-diethoxy-phenyl)-amine]: the 50% inhibitory concentration (IC50) at GST-JAK2(808-1132) came out at 5.3 nM; in test [1] it was 1040 nM.

As to `O=C(c1ccc(Nc2ncc3ccn(-c4cc(F)c(CN5CCCC5)c(F)c4)c3n2)cc1)N1CCOCC1` [Example 178, {4-[7-(3,5-Difluoro-4-pyrrolidin-1-ylmethyl-phenyl)-7H-pyrrolo[2,3-d]pyrimidin-2-ylamino]-phenyl}-morpholin-4-yl-methanone], the half-maximal inhibitory concentration (IC50) at GST-JAK2(808-1132) is 9.1 nM; in test [1], 790 nM.

For the compound `COCc1ccc(Nc2ncc3ccn(-c4cc(F)c(CN5CCCC5)c(F)c4)c3n2)cc1` [Example 179, [7-(3,5-Difluoro-4-pyrrolidin-1-ylmethyl-phenyl)-7H-pyrrolo[2,3-d]pyrimidin-2-yl]-(4-methoxymethyl-phenyl)-amine], the concentration for half-maximal inhibition (IC50) at GST-JAK2(808-1132) was found to be 10.4 nM; in test [1] it was 1520 nM.

Turning to `O=S1(=O)CCN(Cc2c(F)cc(-n3ccc4cnc(Nc5ccccc5)nc43)cc2F)CC1` [Example 180, {7-[4-(1,1-Dioxido-thiomorpholin-4-ylmethyl)-3,5-difluoro-phenyl]-7H-pyrrolo[2,3-d]pyrimidin-2-yl}-phenyl-amine], the results for the concentration for half-maximal inhibition (IC50) (on GST-JAK2(808-1132); in test [1]) were less than 3 nM and 120 nM, respectively.
